In ChEMBL document CHEMBL1275485, “The antimalarial trioxaquine DU1301 alkylates heme in malaria-infected mice” (Antimicrob Agents Chemother, 2008):
Calls of active or inactive are those of the source. The calls are words filed in the database; no cut-off is given here.

What was measured:
Spleen = assay: Induction of heme alkylation in Plasmodium vinckei petteri-infected Swiss albino mice (Mus musculus) spleen assessed as covalent heme-drug adduct formation at 100 mg/kg, perorally administered as single dose measured by liquid chromatography-mass spectrometry method; type: functional, organism-based; set-up: dose 100 mg/kg
Kidney = assay: Induction of heme alkylation in Plasmodium vinckei petteri-infected Swiss albino mice (Mus musculus) kidney assessed as heme-drug adduct at 100 mg/kg, perorally administered as single dose measured by liquid chromatography-mass spectrometry method; type: functional, organism-based; set-up: dose 100 mg/kg

Compound: CC(C)C1=C[C@H]2OC3(CCC(NCCNc4ccnc5cc(Cl)ccc45)CC3)OO[C@@]2(C)CC1 (some centres not stated)
- Activity (Spleen): Active
- Activity (Kidney): inactive
